± gives the expanded uncertainty stated by the source.
Assay: mn = molality of the nth substance listed, in mol/kg
Conditions: 101.3 kPa, Liquid; for viscosity: Capillary tube (Ostwald / Ubbelohde) method; for mass density: Pycnometric method

O=C(O)c1cccnc1 [3-carboxylpyridine] + O
Conditions | mass density [kg/m3] | viscosity [mPa·s]
275.15 K, m1 = 0.0098 | 1000.41 ± 0.92 | 1.675 ± 0.036
275.15 K, m1 = 0.0199 | 1000.84 ± 0.92 | 1.685 ± 0.037
275.15 K, m1 = 0.023 | 1000.96 ± 0.92 | 1.687 ± 0.037
275.15 K, m1 = 0.0249 | 1001.1 ± 0.92 | 1.687 ± 0.037
275.15 K, m1 = 0.0299 | 1001.29 ± 0.92 | 1.691 ± 0.037
275.15 K, m1 = 0.0349 | 1001.51 ± 0.93 | 1.686 ± 0.037
275.15 K, m1 = 0.0402 | 1001.76 ± 0.93 | 1.691 ± 0.037
275.15 K, m1 = 0.0429 | 1001.91 ± 0.93 | 1.693 ± 0.037
275.15 K, m1 = 0.0453 | 1002.02 ± 0.93 | 1.694 ± 0.037
275.15 K, m1 = 0.0497 | 1002.2 ± 0.93 | 1.69 ± 0.037
275.15 K, m1 = 0.055 | 1002.46 ± 0.93 | 1.7 ± 0.037
275.15 K, m1 = 0.06 | 1002.7 ± 0.93 | 1.702 ± 0.037
275.15 K, m1 = 0.0646 | 1002.87 ± 0.93 | 1.704 ± 0.037
275.15 K, m1 = 0.0701 | 1003.17 ± 0.93 | 1.706 ± 0.037
275.15 K, m1 = 0.0801 | 1003.54 ± 0.93 | 1.715 ± 0.037
277.15 K, m1 = 0.0094 | 1000.39 ± 0.92 | 1.572 ± 0.034
277.15 K, m1 = 0.0201 | 1000.87 ± 0.92 | 1.574 ± 0.034
277.15 K, m1 = 0.0231 | 1000.98 ± 0.92 | 1.574 ± 0.034
277.15 K, m1 = 0.025 | 1001.1 ± 0.92 | 1.576 ± 0.034
277.15 K, m1 = 0.0296 | 1001.29 ± 0.92 | 1.577 ± 0.034
277.15 K, m1 = 0.0399 | 1001.69 ± 0.92 | 1.58 ± 0.034
277.15 K, m1 = 0.043 | 1001.86 ± 0.92 | 1.582 ± 0.034
277.15 K, m1 = 0.0451 | 1001.97 ± 0.92 | 1.583 ± 0.034
277.15 K, m1 = 0.0499 | 1002.23 ± 0.92 | 1.586 ± 0.034
277.15 K, m1 = 0.055 | 1002.34 ± 0.92 | 1.586 ± 0.034
277.15 K, m1 = 0.06 | 1002.64 ± 0.92 | 1.587 ± 0.034
277.15 K, m1 = 0.0631 | 1002.69 ± 0.92 | 1.591 ± 0.034
277.15 K, m1 = 0.065 | 1002.84 ± 0.92 | 1.591 ± 0.034
277.15 K, m1 = 0.0705 | 1003.13 ± 0.92 | 1.592 ± 0.034
279.15 K, m1 = 0.0103 | 1000.39 ± 0.92 | 1.474 ± 0.032
279.15 K, m1 = 0.0198 | 1000.79 ± 0.92 | 1.479 ± 0.032
279.15 K, m1 = 0.0229 | 1000.95 ± 0.92 | 1.485 ± 0.032
279.15 K, m1 = 0.03 | 1001.23 ± 0.92 | 1.489 ± 0.032
279.15 K, m1 = 0.0351 | 1001.46 ± 0.92 | 1.49 ± 0.032
279.15 K, m1 = 0.04 | 1001.74 ± 0.92 | 1.495 ± 0.032
279.15 K, m1 = 0.0431 | 1001.79 ± 0.92 | 1.494 ± 0.032
279.15 K, m1 = 0.0454 | 1001.94 ± 0.92 | 1.496 ± 0.032
279.15 K, m1 = 0.0501 | 1002.16 ± 0.92 | 1.499 ± 0.032
279.15 K, m1 = 0.0551 | 1002.39 ± 0.92 | 1.503 ± 0.032
279.15 K, m1 = 0.06 | 1002.54 ± 0.92 | 1.5 ± 0.032
279.15 K, m1 = 0.0631 | 1002.68 ± 0.92 | 1.502 ± 0.032
279.15 K, m1 = 0.065 | 1002.79 ± 0.92 | 1.503 ± 0.032
279.15 K, m1 = 0.0701 | 1003.04 ± 0.92 | 1.509 ± 0.032

NC(=O)c1cccnc1 [3-pyridinecarboxamide] + O
Conditions | mass density [kg/m3] | viscosity [mPa·s]
275.15 K, m1 = 0.0101 | 1000.22 ± 0.92 | 1.683 ± 0.036
275.15 K, m1 = 0.0201 | 1000.53 ± 0.92 | 1.687 ± 0.036
275.15 K, m1 = 0.03 | 1000.83 ± 0.92 | 1.691 ± 0.037
275.15 K, m1 = 0.035 | 1001.02 ± 0.92 | 1.697 ± 0.037
275.15 K, m1 = 0.0401 | 1001.11 ± 0.92 | 1.703 ± 0.037
275.15 K, m1 = 0.0452 | 1001.26 ± 0.92 | 1.707 ± 0.037
275.15 K, m1 = 0.0502 | 1001.51 ± 0.92 | 1.71 ± 0.037
275.15 K, m1 = 0.0598 | 1001.74 ± 0.92 | 1.711 ± 0.037
275.15 K, m1 = 0.0651 | 1001.85 ± 0.92 | 1.714 ± 0.037
275.15 K, m1 = 0.07 | 1002.13 ± 0.93 | 1.718 ± 0.037
275.15 K, m1 = 0.0749 | 1002.21 ± 0.93 | 1.724 ± 0.037
275.15 K, m1 = 0.08 | 1002.41 ± 0.93 | 1.721 ± 0.037
275.15 K, m1 = 0.0852 | 1002.57 ± 0.93 | 1.724 ± 0.037
275.15 K, m1 = 0.1004 | 1002.93 ± 0.93 | 1.73 ± 0.037
277.15 K, m1 = 0.01 | 1000.25 ± 0.92 | 1.578 ± 0.034
277.15 K, m1 = 0.0202 | 1000.54 ± 0.92 | 1.583 ± 0.034
277.15 K, m1 = 0.03 | 1000.97 ± 0.92 | 1.588 ± 0.035
277.15 K, m1 = 0.0348 | 1000.98 ± 0.92 | 1.59 ± 0.035
277.15 K, m1 = 0.045 | 1001.27 ± 0.92 | 1.595 ± 0.035
277.15 K, m1 = 0.05 | 1001.42 ± 0.92 | 1.598 ± 0.035
277.15 K, m1 = 0.0601 | 1001.66 ± 0.92 | 1.603 ± 0.035
277.15 K, m1 = 0.0652 | 1001.86 ± 0.92 | 1.605 ± 0.035
277.15 K, m1 = 0.0691 | 1002 ± 0.92 | 1.607 ± 0.035
277.15 K, m1 = 0.075 | 1002.19 ± 0.92 | 1.61 ± 0.035
277.15 K, m1 = 0.0801 | 1002.29 ± 0.92 | 1.612 ± 0.035
277.15 K, m1 = 0.0849 | 1002.44 ± 0.92 | 1.615 ± 0.035
279.15 K, m1 = 0.02 | 1000.51 ± 0.92 | 1.481 ± 0.032
279.15 K, m1 = 0.0302 | 1000.82 ± 0.92 | 1.482 ± 0.032
279.15 K, m1 = 0.0347 | 1000.97 ± 0.92 | 1.485 ± 0.033
279.15 K, m1 = 0.0348 | 1000.92 ± 0.92 | 1.485 ± 0.033
279.15 K, m1 = 0.04 | 1001.13 ± 0.92 | 1.487 ± 0.033
279.15 K, m1 = 0.0451 | 1001.28 ± 0.92 | 1.488 ± 0.033
279.15 K, m1 = 0.05 | 1001.45 ± 0.92 | 1.493 ± 0.033
279.15 K, m1 = 0.0598 | 1001.7 ± 0.92 | 1.495 ± 0.033
279.15 K, m1 = 0.0699 | 1001.95 ± 0.92 | 1.5 ± 0.033
279.15 K, m1 = 0.0749 | 1002.04 ± 0.92 | 1.504 ± 0.033
279.15 K, m1 = 0.0799 | 1002.19 ± 0.92 | 1.507 ± 0.033
279.15 K, m1 = 0.0849 | 1002.36 ± 0.92 | 1.51 ± 0.033
279.15 K, m1 = 0.0897 | 1002.44 ± 0.92 | 1.513 ± 0.033
279.15 K, m1 = 0.1004 | 1002.78 ± 0.92 | 1.52 ± 0.033

Source: the NIST ThermoML archive (doi:10.1016/j.jct.2014.02.024)
